Like-named read-outs stand apart in the source and are kept apart here.
Columns and labels:
Assay in all cases: Off-chip Mobility Shift Assay (MSA method), kinase inhibition
Format in all cases: biochemical
MSK1 = MSK1 (Homo sapiens, UniProt O75582); conditions: for inhibition at 0.1 µM: read-out: inhibition (%) MSK1
Experimental: (§1) For compound k-1:B-1, inhibitory activity evaluation (calculation of 50% inhibitory concentration (IC50)) was performed on 8 kinds of kinases (CGK2, LATS2, MSK1, p70S6K, PKACα, PKACβ, SGK2, SGK3). The activity was measured using the Off-chip Mobility Shift Assay (MSA method) described below. The compound was added such that the test concentration of k-1:B-1 was in 10 steps from the final concentration of 10 μM to 0.3 nM.
(§2) As an analysis method of the data, the mean signal of the control well containing all reaction components was set to 0% inhibition, the mean signal without enzyme addition was set to 100% inhibition, and the inhibition rate was calculated from the mean signal of 2 wells of each test substance test. The IC50 value was obtained by approximating a plot based on the test substance concentration and inhibition rate to a 4 parameter logistics curve by using the Excel Solver add-in and by the non-linear least squares method.
(§3) 5 μL of k-1:B-1 solution at 4-fold concentration, 5 μL of substrate/ATP/metal solution at 4-fold concentration, and 10 μL of kinase solution at 2-fold concentration, each prepared with assay buffer (20 mM HEPES, 0.01% Triton X-100, 2 mM DTT, pH 7.5), were mixed in the wells of a polypropylene 384-well plate and reacted at room temperature for 1 or 5 hr. Successively, 70 μL of Termination Buffer (QuickScout Screening Assist MSA; Carna Biosciences) was added to discontinue the reaction. Then, the substrate peptide and the phosphorylated peptide in the reaction solution were separated and quantified by the LabChip system (Perkin Elmer). The kinase reaction was evaluated by the resultant product ratio (P/(P+S)) calculated from the substrate peptide peak height (S) and the phosphorylated peptide peak height (P).
(§4) For compounds k-1:H-7, k-1:H-1, k-1:D-1, k-1:J-1, and k-1:B-1, inhibitory rate at 100 nM was calculated on 8 kinds of kinases (CGK2, LATS2, MSK1, p70S6K, PKACα, PKACβ, SGK2, SGK3). The activity was measured using the MSA method. As an analysis method of the data, the mean signal of the control well containing all reaction components was set to 0% inhibition, the mean signal without enzyme addition was set to 100% inhibition, and the inhibition rate was calculated from the mean signal of 2 wells of each test substance test.
as §3, with “a compound” for “k-1:B-1”

CGK2 = target: T1, CGK2 (Homo sapiens, UniProt Q13237); conditions: for inhibition at 0.1 µM: read-out: inhibition (%) CGK2
T1 sequence (Q13237 1-762): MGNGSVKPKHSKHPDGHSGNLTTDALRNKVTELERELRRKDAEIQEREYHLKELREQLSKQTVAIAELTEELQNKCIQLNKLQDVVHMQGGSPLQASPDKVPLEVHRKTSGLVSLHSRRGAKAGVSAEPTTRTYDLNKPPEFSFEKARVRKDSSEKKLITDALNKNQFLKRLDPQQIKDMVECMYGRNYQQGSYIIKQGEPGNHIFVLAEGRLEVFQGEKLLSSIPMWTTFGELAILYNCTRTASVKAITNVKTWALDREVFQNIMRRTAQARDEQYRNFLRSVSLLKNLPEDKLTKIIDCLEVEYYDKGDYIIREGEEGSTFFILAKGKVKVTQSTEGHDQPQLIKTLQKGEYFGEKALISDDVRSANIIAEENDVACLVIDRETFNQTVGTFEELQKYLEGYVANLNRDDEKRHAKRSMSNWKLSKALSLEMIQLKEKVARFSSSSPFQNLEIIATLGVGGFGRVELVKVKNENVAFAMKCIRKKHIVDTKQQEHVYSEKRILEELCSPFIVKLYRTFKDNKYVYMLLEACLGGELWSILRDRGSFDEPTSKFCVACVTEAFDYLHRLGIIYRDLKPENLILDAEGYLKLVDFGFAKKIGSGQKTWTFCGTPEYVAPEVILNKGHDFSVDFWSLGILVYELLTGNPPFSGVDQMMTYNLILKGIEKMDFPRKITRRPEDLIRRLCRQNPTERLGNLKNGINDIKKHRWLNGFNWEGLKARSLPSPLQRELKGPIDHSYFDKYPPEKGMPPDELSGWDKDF
Experimental: as §1, §2, §3, §4
as §3, with “a compound” for “k-1:B-1”

PKACα = PKACα (Homo sapiens, UniProt P17612); conditions: for inhibition at 0.1 µM: read-out: inhibition (%) PKACα
Experimental: as §1, §2, §3, §4
as §3, with “a compound” for “k-1:B-1”

SGK2 = target: T2, SGK2 (Homo sapiens, UniProt Q9HBY8); conditions: for inhibition at 0.1 µM: read-out: inhibition (%) SGK2
T2 sequence (Q9HBY8 1-367): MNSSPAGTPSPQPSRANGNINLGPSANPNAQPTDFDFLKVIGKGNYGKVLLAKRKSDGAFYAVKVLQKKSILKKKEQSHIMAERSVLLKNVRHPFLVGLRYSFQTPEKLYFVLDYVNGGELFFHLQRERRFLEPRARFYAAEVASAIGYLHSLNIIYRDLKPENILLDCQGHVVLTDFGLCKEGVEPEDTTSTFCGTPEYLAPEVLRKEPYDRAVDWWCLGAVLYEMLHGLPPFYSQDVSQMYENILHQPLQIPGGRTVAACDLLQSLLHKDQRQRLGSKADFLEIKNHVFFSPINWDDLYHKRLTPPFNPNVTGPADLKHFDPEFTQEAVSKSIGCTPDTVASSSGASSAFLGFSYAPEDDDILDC
Experimental: as §1, §2, §3, §4
as §3, with “a compound” for “k-1:B-1”

PKACβ = PKACβ (Homo sapiens, UniProt P22694); conditions: for inhibition at 0.1 µM: read-out: inhibition (%) PKACβ
Experimental: as §1, §2, §3, §4
as §3, with “a compound” for “k-1:B-1”

p70S6K = p70S6K (Homo sapiens, UniProt P23443); conditions: for inhibition at 0.1 µM: read-out: inhibition (%) p70S6K
p70S6K, sequence (P23443 whole entry): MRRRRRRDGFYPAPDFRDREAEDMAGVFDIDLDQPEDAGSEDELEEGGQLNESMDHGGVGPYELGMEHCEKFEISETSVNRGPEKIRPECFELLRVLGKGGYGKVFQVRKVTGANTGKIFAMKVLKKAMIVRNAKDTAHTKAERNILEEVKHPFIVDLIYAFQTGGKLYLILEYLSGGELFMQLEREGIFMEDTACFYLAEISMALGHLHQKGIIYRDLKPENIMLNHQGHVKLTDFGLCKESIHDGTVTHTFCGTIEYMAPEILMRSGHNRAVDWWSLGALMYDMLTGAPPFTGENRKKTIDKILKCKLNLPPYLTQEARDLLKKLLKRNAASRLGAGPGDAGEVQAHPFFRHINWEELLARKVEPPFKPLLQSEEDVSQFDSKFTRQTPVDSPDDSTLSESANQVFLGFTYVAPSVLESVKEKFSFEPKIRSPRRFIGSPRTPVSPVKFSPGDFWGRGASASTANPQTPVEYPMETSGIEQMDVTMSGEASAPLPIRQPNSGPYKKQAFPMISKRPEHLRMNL
Experimental: as §1, §2, §3, §4
as §3, with “a compound” for “k-1:B-1”

[1] = MSA method, 10 steps from 10 μM to 0.3 nM

MSK1, sequence (O75582 whole entry): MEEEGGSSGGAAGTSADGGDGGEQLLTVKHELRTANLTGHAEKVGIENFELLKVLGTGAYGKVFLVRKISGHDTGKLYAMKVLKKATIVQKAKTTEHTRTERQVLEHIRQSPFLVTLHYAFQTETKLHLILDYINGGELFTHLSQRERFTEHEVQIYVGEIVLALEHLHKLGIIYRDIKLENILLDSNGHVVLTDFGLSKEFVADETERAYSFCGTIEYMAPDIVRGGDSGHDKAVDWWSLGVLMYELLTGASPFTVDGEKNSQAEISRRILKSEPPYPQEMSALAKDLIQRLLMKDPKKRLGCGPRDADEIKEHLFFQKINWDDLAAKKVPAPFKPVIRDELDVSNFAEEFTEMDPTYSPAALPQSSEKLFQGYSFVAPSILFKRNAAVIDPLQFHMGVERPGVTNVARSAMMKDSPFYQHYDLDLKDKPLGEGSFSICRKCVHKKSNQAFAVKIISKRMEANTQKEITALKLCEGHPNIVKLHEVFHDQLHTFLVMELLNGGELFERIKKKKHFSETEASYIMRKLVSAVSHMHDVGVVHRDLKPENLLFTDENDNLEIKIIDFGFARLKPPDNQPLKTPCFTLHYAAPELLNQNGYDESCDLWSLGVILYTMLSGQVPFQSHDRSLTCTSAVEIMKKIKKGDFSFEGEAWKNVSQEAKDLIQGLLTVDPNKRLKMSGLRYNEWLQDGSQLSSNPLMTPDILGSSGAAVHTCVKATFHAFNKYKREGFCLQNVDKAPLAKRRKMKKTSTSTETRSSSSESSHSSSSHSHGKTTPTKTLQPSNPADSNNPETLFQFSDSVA

Row | IC50 (MSK1; [1]) [nM] | inhibition at 0.1 µM (MSK1; at 100 nM, MSA method) [%] | IC50 (CGK2; [1]) [nM] | inhibition at 0.1 µM (CGK2; at 100 nM, MSA method) [%] | IC50 (PKACα; [1]) [nM] | inhibition at 0.1 µM (PKACα; at 100 nM, MSA method) [%] | IC50 (SGK2; [1]) [nM] | inhibition at 0.1 µM (SGK2; at 100 nM, MSA method) [%] | IC50 (PKACβ; [1]) [nM] | inhibition at 0.1 µM (PKACβ; at 100 nM, MSA method) [%] | IC50 (p70S6K; [1]) [nM] | inhibition at 0.1 µM (p70S6K; at 100 nM, MSA method) [%] | SMILES | inhibition at 0.1 µM (MSK1) [%] | inhibition at 0.1 µM (CGK2) [%] | inhibition at 0.1 µM (PKACα) [%] | inhibition at 0.1 µM (SGK2) [%] | inhibition at 0.1 µM (PKACβ) [%] | inhibition at 0.1 µM (p70S6K) [%]
1 | 17.4 | 87.7 | 29.9 | 83.2 | 23.4 | 82.8 | 13.2 | 87.3 | 29.3 | 80.1 | 41.5 | 67.6 | CC/C(=N\NC(=O)C(C)Nc1ccccc1)c1ccc(O)c(C)c1O (stereo not drawn) [k-1:B-1] | – | – | – | – | – | –
2 | – | 99.7 | – | 77.6 | – | 92.1 | – | 93.6 | – | 87.7 | – | 82 | CCC(=NNC(=O)CNc1ccccc1)c1ccc(O)c(C)c1O [k-1:H-1] | – | – | – | – | – | –
3 | – | 94.9 | – | 80.8 | – | 77.7 | – | 84.3 | – | 72 | – | 70.3 | CCC(=NNC(=O)C(CC)Nc1ccccc1)c1ccc(O)c(C)c1O (stereo not drawn) [k-1:H-7] | – | – | – | – | – | –

Further lines, the molecule ahead of its results:

Row | SMILES | IC50 (MSK1; [1]) [nM] | inhibition at 0.1 µM (MSK1; at 100 nM, MSA method) [%] | IC50 (CGK2; [1]) [nM] | inhibition at 0.1 µM (CGK2; at 100 nM, MSA method) [%] | IC50 (PKACα; [1]) [nM] | inhibition at 0.1 µM (PKACα; at 100 nM, MSA method) [%] | IC50 (SGK2; [1]) [nM] | inhibition at 0.1 µM (SGK2; at 100 nM, MSA method) [%] | IC50 (PKACβ; [1]) [nM] | inhibition at 0.1 µM (PKACβ; at 100 nM, MSA method) [%] | IC50 (p70S6K; [1]) [nM] | inhibition at 0.1 µM (p70S6K; at 100 nM, MSA method) [%] | inhibition at 0.1 µM (MSK1) [%] | inhibition at 0.1 µM (CGK2) [%] | inhibition at 0.1 µM (PKACα) [%] | inhibition at 0.1 µM (SGK2) [%] | inhibition at 0.1 µM (PKACβ) [%] | inhibition at 0.1 µM (p70S6K) [%]
4 | CC/C(=N\NC(=O)CNc1cccc(O)c1)c1ccc(O)c(C)c1O [k-1:D-1] | – | – | – | – | – | – | – | – | – | – | – | – | 101 | 97.2 | 99.7 | 99.9 | 98.5 | 97.9
5 | CC/C(=N\NC(=O)NCc1cccc(O)c1)c1ccc(O)c(C)c1O [k-1:J-1] | – | – | – | – | – | – | – | – | – | – | – | – | 99.6 | 51.3 | 94 | 95.1 | 89.7 | 78.3
